Assay: xn = mol fraction of the nth substance listed
Settings: Liquid, Vibrating tube method

COC(=O)OC [dimethyl carbonate] + CO
Settings | mass density [kg/m3]
293.15 K, 35000 kPa, x1 = 0.9575 | 1092.6
293.15 K, 35000 kPa, x1 = 0.9861 | 1096.44
293.15 K, 35000 kPa, x1 = 1 | 1098.34
293.15 K, 40000 kPa, x1 = 0.0253 | 837.02
293.15 K, 40000 kPa, x1 = 0.0503 | 850.69
293.15 K, 40000 kPa, x1 = 0.0745 | 863.25
293.15 K, 40000 kPa, x1 = 0.101 | 876.36
293.15 K, 40000 kPa, x1 = 0.1502 | 898.94
293.15 K, 40000 kPa, x1 = 0.2059 | 922.29
293.15 K, 40000 kPa, x1 = 0.25 | 939.11
293.15 K, 40000 kPa, x1 = 0.3004 | 956.8
293.15 K, 40000 kPa, x1 = 0.3426 | 970.51
293.15 K, 40000 kPa, x1 = 0.3984 | 987.25
293.15 K, 40000 kPa, x1 = 0.4514 | 1001.78
293.15 K, 40000 kPa, x1 = 0.5054 | 1015.38
293.15 K, 40000 kPa, x1 = 0.5509 | 1026.01
293.15 K, 40000 kPa, x1 = 0.6002 | 1036.7
293.15 K, 40000 kPa, x1 = 0.6469 | 1046.11
293.15 K, 40000 kPa, x1 = 0.6993 | 1055.92
293.15 K, 40000 kPa, x1 = 0.7496 | 1064.69
293.15 K, 40000 kPa, x1 = 0.799 | 1072.77
293.15 K, 40000 kPa, x1 = 0.837 | 1078.71
293.15 K, 40000 kPa, x1 = 0.9093 | 1089.35
293.15 K, 40000 kPa, x1 = 0.9239 | 1091.39
293.15 K, 40000 kPa, x1 = 0.9575 | 1096.04
293.15 K, 40000 kPa, x1 = 0.9861 | 1099.94
293.15 K, 40000 kPa, x1 = 1 | 1101.84
298.15 K, 100 kPa, x1 = 0.0253 | 801.12
298.15 K, 100 kPa, x1 = 0.0503 | 814.67
298.15 K, 100 kPa, x1 = 0.0745 | 827.15
298.15 K, 100 kPa, x1 = 0.101 | 840.09
298.15 K, 100 kPa, x1 = 0.1502 | 862.34
298.15 K, 100 kPa, x1 = 0.2059 | 885.36
298.15 K, 100 kPa, x1 = 0.25 | 902
298.15 K, 100 kPa, x1 = 0.3004 | 919.49
298.15 K, 100 kPa, x1 = 0.3426 | 933.01
298.15 K, 100 kPa, x1 = 0.3984 | 949.56
298.15 K, 100 kPa, x1 = 0.4514 | 964.01
298.15 K, 100 kPa, x1 = 0.5054 | 977.58
298.15 K, 100 kPa, x1 = 0.5509 | 988.15
298.15 K, 100 kPa, x1 = 0.6002 | 998.73
298.15 K, 100 kPa, x1 = 0.6469 | 1008.04
298.15 K, 100 kPa, x1 = 0.6993 | 1017.79
298.15 K, 100 kPa, x1 = 0.7496 | 1026.56
298.15 K, 100 kPa, x1 = 0.799 | 1034.65
298.15 K, 100 kPa, x1 = 0.837 | 1040.55
298.15 K, 100 kPa, x1 = 0.9093 | 1051.17
298.15 K, 100 kPa, x1 = 0.9239 | 1053.21
298.15 K, 100 kPa, x1 = 0.9575 | 1057.78
298.15 K, 100 kPa, x1 = 0.9861 | 1061.61
298.15 K, 100 kPa, x1 = 1 | 1063.45
298.15 K, 5000 kPa, x1 = 0.0253 | 805.88
298.15 K, 5000 kPa, x1 = 0.0503 | 819.42
298.15 K, 5000 kPa, x1 = 0.0745 | 831.91
298.15 K, 5000 kPa, x1 = 0.101 | 844.85
298.15 K, 5000 kPa, x1 = 0.1502 | 867.1
298.15 K, 5000 kPa, x1 = 0.2059 | 890.12
298.15 K, 5000 kPa, x1 = 0.25 | 906.75
298.15 K, 5000 kPa, x1 = 0.3004 | 924.24
298.15 K, 5000 kPa, x1 = 0.3426 | 937.77
298.15 K, 5000 kPa, x1 = 0.3984 | 954.26
298.15 K, 5000 kPa, x1 = 0.4514 | 968.71
298.15 K, 5000 kPa, x1 = 0.5054 | 982.28
298.15 K, 5000 kPa, x1 = 0.5509 | 992.8
298.15 K, 5000 kPa, x1 = 0.6002 | 1003.39
298.15 K, 5000 kPa, x1 = 0.6469 | 1012.69
298.15 K, 5000 kPa, x1 = 0.6993 | 1022.44
298.15 K, 5000 kPa, x1 = 0.7496 | 1031.16
298.15 K, 5000 kPa, x1 = 0.799 | 1039.25
298.15 K, 5000 kPa, x1 = 0.837 | 1045.15
298.15 K, 5000 kPa, x1 = 0.9093 | 1055.73
298.15 K, 5000 kPa, x1 = 0.9239 | 1057.76
298.15 K, 5000 kPa, x1 = 0.9575 | 1062.33
298.15 K, 5000 kPa, x1 = 0.9861 | 1066.16
298.15 K, 5000 kPa, x1 = 1 | 1068
298.15 K, 10000 kPa, x1 = 0.0253 | 810.17
298.15 K, 10000 kPa, x1 = 0.0503 | 823.72
298.15 K, 10000 kPa, x1 = 0.0745 | 836.21
298.15 K, 10000 kPa, x1 = 0.101 | 849.21
298.15 K, 10000 kPa, x1 = 0.1502 | 871.47
298.15 K, 10000 kPa, x1 = 0.2059 | 894.5
298.15 K, 10000 kPa, x1 = 0.25 | 911.19
298.15 K, 10000 kPa, x1 = 0.3004 | 928.68
298.15 K, 10000 kPa, x1 = 0.3426 | 942.22
298.15 K, 10000 kPa, x1 = 0.3984 | 958.77
298.15 K, 10000 kPa, x1 = 0.4514 | 973.22
298.15 K, 10000 kPa, x1 = 0.5054 | 986.75
298.15 K, 10000 kPa, x1 = 0.5509 | 997.28
298.15 K, 10000 kPa, x1 = 0.6002 | 1007.87
298.15 K, 10000 kPa, x1 = 0.6469 | 1017.17
298.15 K, 10000 kPa, x1 = 0.6993 | 1026.93
298.15 K, 10000 kPa, x1 = 0.7496 | 1035.66
298.15 K, 10000 kPa, x1 = 0.799 | 1043.74
298.15 K, 10000 kPa, x1 = 0.837 | 1049.65
298.15 K, 10000 kPa, x1 = 0.9093 | 1060.23
298.15 K, 10000 kPa, x1 = 0.9239 | 1062.27
298.15 K, 10000 kPa, x1 = 0.9575 | 1066.84
298.15 K, 10000 kPa, x1 = 0.9861 | 1070.67
298.15 K, 10000 kPa, x1 = 1 | 1072.51
298.15 K, 15000 kPa, x1 = 0.0253 | 814.5
298.15 K, 15000 kPa, x1 = 0.0503 | 828.05
298.15 K, 15000 kPa, x1 = 0.0745 | 840.55
298.15 K, 15000 kPa, x1 = 0.101 | 853.54
298.15 K, 15000 kPa, x1 = 0.1502 | 875.8
298.15 K, 15000 kPa, x1 = 0.2059 | 898.84
298.15 K, 15000 kPa, x1 = 0.25 | 915.53
298.15 K, 15000 kPa, x1 = 0.3004 | 933.03
298.15 K, 15000 kPa, x1 = 0.3426 | 946.56
298.15 K, 15000 kPa, x1 = 0.3984 | 963.12
298.15 K, 15000 kPa, x1 = 0.4514 | 977.52
298.15 K, 15000 kPa, x1 = 0.5054 | 991.05
298.15 K, 15000 kPa, x1 = 0.5509 | 1001.58
298.15 K, 15000 kPa, x1 = 0.6002 | 1012.12
298.15 K, 15000 kPa, x1 = 0.6469 | 1021.43
298.15 K, 15000 kPa, x1 = 0.6993 | 1031.19
298.15 K, 15000 kPa, x1 = 0.7496 | 1039.91
298.15 K, 15000 kPa, x1 = 0.799 | 1047.95
298.15 K, 15000 kPa, x1 = 0.837 | 1053.86
298.15 K, 15000 kPa, x1 = 0.9093 | 1064.44
298.15 K, 15000 kPa, x1 = 0.9239 | 1066.48
298.15 K, 15000 kPa, x1 = 0.9575 | 1071.05
298.15 K, 15000 kPa, x1 = 0.9861 | 1074.88
298.15 K, 15000 kPa, x1 = 1 | 1076.72
298.15 K, 20000 kPa, x1 = 0.0253 | 818.56
298.15 K, 20000 kPa, x1 = 0.0503 | 832.13
298.15 K, 20000 kPa, x1 = 0.0745 | 844.63
298.15 K, 20000 kPa, x1 = 0.101 | 857.59
298.15 K, 20000 kPa, x1 = 0.1502 | 879.93
298.15 K, 20000 kPa, x1 = 0.2059 | 902.99
298.15 K, 20000 kPa, x1 = 0.25 | 919.64
298.15 K, 20000 kPa, x1 = 0.3004 | 937.16
298.15 K, 20000 kPa, x1 = 0.3426 | 950.71
298.15 K, 20000 kPa, x1 = 0.3984 | 967.28
298.15 K, 20000 kPa, x1 = 0.4514 | 981.7
298.15 K, 20000 kPa, x1 = 0.5054 | 995.2

— the NIST ThermoML archive (doi:10.1016/j.jct.2019.02.011)
